Laboratory results taken from the supplement of paper PMC13380429.

Legend:
Details in all cases: 72 h
[1] = test system: Caco-2; test: cell viability relative to DMSO; higher = less toxic
[2] = test system: Calu-3; test: as above
[3] = test system: HepG2; test: as above
[4] = test system: U2OS; test: as above
[5] = test system: Vero E6; test: as above
[6] = test system: Caco-2; test: relative viability EC50 (midpoint between 100% and the lowest measured viability); higher = less toxic
[7] = test system: Calu-3; test: as above
[8] = test system: HepG2; test: as above
[9] = test system: U2OS; test: as above
[10] = test system: Vero E6; test: as above
[11] = test system: Caco-2; test: drug sensitivity score (DSS) for viability; higher = more toxic; extreme values may be limits of the assay
[12] = test system: Calu-3; test: as above
[13] = test system: HepG2; test: as above
[14] = test system: U2OS; test: as above
[15] = test system: Vero E6; test: as above

| Compound | cell viability ([1]; 1 nM) [%] | cell viability ([1]; 10 nM) [%] | cell viability ([1]; 100 nM) [%] | cell viability ([1]; 1000 nM) [%] | cell viability ([1]; 10000 nM) [%] | cell viability ([2]; 1 nM) [%] | cell viability ([2]; 10 nM) [%] | cell viability ([2]; 100 nM) [%] | cell viability ([2]; 1000 nM) [%] | cell viability ([2]; 10000 nM) [%] | cell viability ([3]; 1 nM) [%] | cell viability ([3]; 10 nM) [%] | cell viability ([3]; 100 nM) [%] | cell viability ([3]; 1000 nM) [%] | cell viability ([3]; 10000 nM) [%] | cell viability ([4]; 1 nM) [%] | cell viability ([4]; 10 nM) [%] | cell viability ([4]; 100 nM) [%] | cell viability ([4]; 1000 nM) [%] | cell viability ([4]; 10000 nM) [%] | cell viability ([5]; 1 nM) [%] | cell viability ([5]; 10 nM) [%] | cell viability ([5]; 100 nM) [%] | cell viability ([5]; 1000 nM) [%] | cell viability ([5]; 10000 nM) [%] | relative viability EC50 [6] [µM] | relative viability EC50 [7] [µM] | relative viability EC50 [8] [µM] | relative viability EC50 [9] [µM] | relative viability EC50 [10] [µM] | drug sensitivity score [11] | drug sensitivity score [12] | drug sensitivity score [13] | drug sensitivity score [14] | drug sensitivity score [15] |
| --- | --- | --- | --- | --- | --- | --- | --- | --- | --- | --- | --- | --- | --- | --- | --- | --- | --- | --- | --- | --- | --- | --- | --- | --- | --- | --- | --- | --- | --- | --- | --- | --- | --- | --- | --- |
| CNC[C@H](O)[C@@H](O)[C@H](O)[C@H](O)CO [meglumine] | 92.6 | 76.1 | 95.3 | 104 | 95.1 | 108 | 95.7 | 99.4 | 88.2 | 97.7 | 89.7 | 93.5 | 81.5 | 98.1 | 85 | 98.3 | 92.8 | 104 | 90.8 | 99 | 88.3 | 91.3 | 93.9 | 99.5 | 96.5 | > 10 | > 10 | > 10 | > 10 | > 10 | 0 | 0 | 0 | 0 | 0 |
| O=C(O)C(F)(F)C(F)(F)C(F)(F)C(F)(F)C(F)(F)C(F)(F)C(F)(F)F [ammonium-perfluorocaprylate] | 96 | 96 | 107 | 95.4 | 103 | 98 | 110 | 100 | 93.6 | 99.3 | 113 | 105 | 97.3 | 99.5 | 102 | 104 | 95.2 | 101 | 92.7 | 104 | 98.2 | 99.5 | 99.8 | 100 | 96 | > 10 | > 10 | > 10 | > 10 | > 10 | 0 | 0 | 0 | 0 | 0 |
| O=[N+]([O-])c1cc(Cl)ccc1S(=O)(=O)N1CCN(Cc2ccccc2)CC1 [RN-1747] | 94.3 | 94 | 96.2 | 106 | 99.9 | 96.4 | 104 | 94.6 | 102 | 106 | 105 | 92.9 | 104 | 86.9 | 104 | 94.6 | 100 | 96.2 | 102 | 106 | 99.5 | 92.2 | 93.4 | 96.1 | 102 | > 10 | > 10 | > 10 | > 10 | > 10 | 0 | 0 | 0 | 0 | 0 |
| CN(C)/C=N/c1c(I)cc(I)c(CCC(=O)O)c1I [iopodic-acid] | 99.8 | 102 | 94.3 | 96.2 | 105 | 101 | 95.4 | 89.5 | 99.4 | 93.2 | 98.8 | 93.7 | 116 | 95 | 98.4 | 98.2 | 100 | 98.9 | 102 | 97.2 | 108 | 101 | 108 | 99.1 | 102 | > 10 | > 10 | > 10 | > 10 | > 10 | 0 | 0 | 0 | 0 | 0 |
| CN1CCC(=C2c3ccccc3CCn3c(C=O)cnc32)CC1 [alcaftadine] | 98.1 | 90.6 | 93.8 | 98.5 | 110 | 99.3 | 99.5 | 100 | 87.4 | 105 | 92.7 | 97.2 | 103 | 101 | 104 | 108 | 101 | 101 | 97.7 | 99.6 | 89.4 | 99.4 | 87.1 | 91.6 | 107 | > 10 | > 10 | > 10 | > 10 | > 10 | 0 | 0 | 0 | 0 | 0 |
| CCOC(=O)OC(C)OC(=O)[C@@H]1N2C(=O)[C@@H](NC(=O)[C@H](N)c3ccccc3)[C@H]2SC1(C)C (stereo partly drawn) [bacampicillin] | 96.3 | 94 | 95.9 | 98 | 104 | 94.1 | 82.4 | 102 | 103 | 110 | 97.6 | 114 | 103 | 100 | 94.6 |  |  |  |  |  | 91.8 | 96.7 | 97.9 | 98.1 | 98.6 | > 10 | > 10 | > 10 |  | > 10 | 0 | 0 | 0 |  | 0 |
| COc1ccccc1OCC(O)CO (stereo not drawn) [guaifenesin] | 102 | 84.5 | 101 | 91.2 | 99.5 | 99.2 | 105 | 101 | 108 | 95.2 | 100 | 99.8 | 98.7 | 103 | 94.7 | 105 | 98.8 | 97 | 97.2 | 100 | 105 | 106 | 105 | 105 | 99.5 | > 10 | > 10 | > 10 | > 10 | > 10 | 0 | 0 | 0 | 0 | 0 |
